Entries after “also recorded” stand apart in the source; their conditions may differ.
Tested on: protein kinase
Test: HTS ATP-utilizing enzyme assay, off-chip mobility-shift format (Caliper HTS 250)
Assay type: biochemical, human
Details: test compound 10 μM; for protein kinase against which the compound exhibits inhibitory activity (Table 3): active = activity greater than three-sigma from the mean of the predominately inactive population for that enzyme; for Kinase: kinase(s) for which the compound exhibits protein kinase inhibitory activity, active = greater than three-sigma from the mean activity of inactive compounds
In short: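 Kinase reactions ran 2.5 h at 20 to 22 °C with test compound at 10 μM, in a HEPES pH 7.5 master buffer containing Triton X-100 and BSA. Peptide substrate and phosphorylated product separated by mobility shift; inhibition normalized to DMSO (0%) and EDTA (100%) controls, with three-sigma thresholds for hits.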

Row | Structure (SMILES) | protein kinase against which the compound exhibits inhibitory activity (Table 3) | Kinase
1 | Cc1nnc(SCCc2ccccc2)[nH]1 [3-methyl-5-(phenethylthio)-4H-1,2,4-triazole] | AURORA-A; also recorded: GSK3-β | 
2 | c1ccc(-c2nnc(SCCN3CCCC3)[nH]2)cc1 [3-phenyl-5-(2-(pyrrolidin-1-yl)ethylthio)-4H-1,2,4-triazole] | GSK3-α; also recorded: GSK3-β; also recorded: CHEK2 | 
3 | Cc1cccc(-c2nnc(SCCN3CCOCC3)n2C)c1 [4-(2-(4-methyl-5-m-tolyl-4H-1,2,4-triazol-3-ylthio)ethyl)morpholine] | AKT1 | 
4 | Clc1ccc(-c2nnc(SCCN3CCOCC3)[nH]2)cc1Cl [4-(2-(5-(3,4-dichlorophenyl)-4H-1,2,4-triazol-3-ylthio)ethyl)morpholine] | AURORA-A; also recorded: GSK3-α; also recorded: GSK3-β | 
5 | COc1ccc(-c2nnc(SCCN3CCOCC3)[nH]2)cc1 [4-(2-(5-(4-methoxyphenyl)-4H-1,2,4-triazol-3-ylthio)ethyl)morpholine] | GSK3-α; also recorded: AURORA-A; also recorded: GSK3-β | 
6 | O=[N+]([O-])c1ccc(-c2nnc(SCCN3CCOCC3)n2-c2ccccc2)cc1 [4-(2-(5-(4-nitrophenyl)-4-phenyl-4H-1,2,4-triazol-3-ylthio)ethyl)morpholine] | PDGFRR-α | 
7 | O=[N+]([O-])c1ccc(-c2nnc(SCCN3CCOCC3)[nH]2)cc1 [4-(2-(5-(4-nitrophenyl)-4H-1,2,4-triazol-3-ylthio)ethyl)morpholine] | GSK3-β; also recorded: GSK3-α; also recorded: AURORA-A | 
8 | c1csc(-c2nnc(SCCN3CCOCC3)[nH]2)c1 [4-(2-(5-(thiophen-2-yl)-4H-1,2,4-triazol-3-ylthio)ethyl)morpholine] | AURORA-A; also recorded: GSK3-β; also recorded: GSK3-α | 
9 | Cc1cccc(-c2nnc(SCCN3CCOCC3)[nH]2)c1 [4-(2-(5-m-tolyl-4H-1,2,4-triazol-3-ylthio)ethyl)morpholine] | AURORA-A; also recorded: GSK3-β; also recorded: GSK3-α | 
10 | COc1ccccc1-n1c(S)nnc1-c1cccnc1 [4-(2-methoxyphenyl)-5-(pyridin-3-yl)-4H-1,2,4-triazole-3-thiol] |  | AURORA-A
11 | Sc1nnc(C2CCCCC2)n1-c1cccc(Cl)c1 [4-(3-chlorophenyl)-5-cyclohexyl-4H-1,2,4-triazole-3-thiol] |  | AURORA-A
12 | COc1ccccc1-n1c(SCCCC(=O)O)nnc1-c1ccccc1 [4-(4-(2-methoxyphenyl)-5-phenyl-4H-1,2,4-triazol-3-ylthio)butanoic acid] | c-TAK1 | 
13 | Oc1ccc(-c2nnc(S)n2-c2cccc(Cl)c2)cc1 [4-(4-(3-chlorophenyl)-5-mercapto-4H-1,2,4-triazol-3-yl)phenol] |  | CDK5 and CDK2-cyclinA and CDK2-cyclinE
14 | Nc1c(Cl)cc(-n2c(S)nnc2-c2ccccc2)cc1Cl [4-(4-amino-3,5-dichlorophenyl)-5-phenyl-4H-1,2,4-triazole-3-thiol] |  | GSK3-β; also recorded: GSK3-α; also recorded: CDK2-cyclinE
15 | Oc1ccc(-c2nnc(SCc3ccccc3)n2Cc2ccccc2)cc1 [4-(4-benzyl-5-(benzylthio)-4H-1,2,4-triazol-3-yl)phenol] | GSK3-β and GSK3-α and LYNA | 
16 | CCSc1nnc(-c2ccc(O)cc2)n1Cc1ccccc1 [4-(4-benzyl-5-(ethylthio)-4H-1,2,4-triazol-3-yl)phenol] | GSK3-β; also recorded: GSK3-α | 
17 | CSc1nnc(-c2ccc(O)cc2)n1Cc1ccccc1 [4-(4-benzyl-5-(methylthio)-4H-1,2,4-triazol-3-yl)phenol] | GSK3-α; also recorded: GSK3-β | 
18 | COc1ccc(-n2c(S)nnc2-c2cccnc2)cc1 [4-(4-methoxyphenyl)-5-(pyridin-3-yl)-4H-1,2,4-triazole-3-thiol] |  | ABL1
19 | COc1ccc(-n2c(C)nnc2S)cc1 [4-(4-methoxyphenyl)-5-methyl-4H-1,2,4-triazole-3-thiol] |  | AURORA-A
20 | Cn1c(SCc2ccccn2)nnc1-c1ccc(O)cc1 [4-(4-methyl-5-(pyridin-2-ylmethylthio)-4H-1,2,4-triazol-3-yl)phenol] | GSK3-β; also recorded: GSK3-α | 
21 | CCn1c(SCc2ccccc2Br)nnc1-c1cc(-c2ccccc2)nc2ccccc12 [4-(5-(2-bromobenzylthio)-4-ethyl-4H-1,2,4-triazol-3-yl)-2-phenylquinoline] | CHEK2 | 

Row | Structure (SMILES) | protein kinase against which the compound exhibits inhibitory activity (Table 3) | Kinase
22 | Cn1c(SCc2c(F)cccc2Cl)nnc1-c1ccncc1 [4-(5-(2-chloro-6-fluorobenzylthio)-4-methyl-4H-1,2,4-triazol-3-yl)pyridine] | GSK3-β; also recorded: AURORA-A | 
23 | CCn1c(SCc2ccccc2Cl)nnc1-c1cc(-c2ccccc2)nc2ccccc12 [4-(5-(2-chlorobenzylthio)-4-ethyl-4H-1,2,4-triazol-3-yl)-2-phenylquinoline] | CHEK2 | 
24 | Oc1ccc(-c2nnc(SCCN3CCOCC3)n2-c2ccccc2)cc1 [4-(5-(2-morpholinoethylthio)-4-phenyl-4H-1,2,4-triazol-3-yl)phenol] | GSK3-α | 
25 | CCn1c(SCc2ccc(Cl)cc2)nnc1-c1ccc(O)cc1 [4-(5-(4-chlorobenzylthio)-4-ethyl-4H-1,2,4-triazol-3-yl)phenol] | MSK2 and GSK3-β and MSK1 | 
26 | CCn1c(SCc2ccc(Cl)cc2)nnc1-c1ccncc1 [4-(5-(4-chlorobenzylthio)-4-ethyl-4H-1,2,4-triazol-3-yl)pyridine] | PKA and AURORA-A and MSK2 | 
27 | Cn1c(SCc2ccc(Cl)cc2)nnc1-c1ccncc1 [4-(5-(4-chlorobenzylthio)-4-methyl-4H-1,2,4-triazol-3-yl)pyridine] | AURORA-A and MSK1 | 
28 | Clc1ccc(CSc2nnc(-c3ccncc3)n2-c2ccccc2)cc1 [4-(5-(4-chlorobenzylthio)-4-phenyl-4H-1,2,4-triazol-3-yl)pyridine] | AURORA-A and PKA and MSK1 | 
29 | Cc1ccc(CSc2nnc(-c3ccncc3)n2-c2ccccc2)cc1 [4-(5-(4-methylbenzylthio)-4-phenyl-4H-1,2,4-triazol-3-yl)pyridine] | AURORA-A | 
30 | CCn1c(SCc2ccc(C(C)(C)C)cc2)nnc1-c1ccncc1 [4-(5-(4-tert-butylbenzylthio)-4-ethyl-4H-1,2,4-triazol-3-yl)pyridine] | MAPKAPK-2 | 
31 | Clc1cccc(-n2c(SCc3ccccc3)nnc2-c2ccncc2)c1 [4-(5-(benzylthio)-4-(3-chlorophenyl)-4H-1,2,4-triazol-3-yl)pyridine] | GSK3-β and AURORA-A and CDK1 | 
32 | Oc1ccc(-c2nnc(SCc3ccccc3)n2Cc2ccco2)cc1 [4-(5-(benzylthio)-4-(furan-2-ylmethyl)-4H-1,2,4-triazol-3-yl)phenol] | GSK3-β and GSK3-α and MSK2 | 
33 | Cn1c(SCc2ccccc2)nnc1-c1ccc(O)cc1 [4-(5-(benzylthio)-4-methyl-4H-1,2,4-triazol-3-yl)phenol] | GSK3-β and GSK3-α and MSK1 | 
34 | Cn1c(SCc2ccccc2)nnc1-c1ccncc1 [4-(5-(benzylthio)-4-methyl-4H-1,2,4-triazol-3-yl)pyridine] | AURORA-A | 
35 | c1ccc(CSc2nnc(-c3ccncc3)n2-c2ccccc2)cc1 [4-(5-(benzylthio)-4-phenyl-4H-1,2,4-triazol-3-yl)pyridine] | AURORA-A | 
36 | CCSc1nnc(-c2ccncc2)n1CCCOC [4-(5-(ethylthio)-4-(3-methoxypropyl)-4H-1,2,4-triazol-3-yl)pyridine] | AURORA-A | 
37 | CSc1nnc(-c2ccc(O)cc2)n1-c1ccccc1 [4-(5-(methylthio)-4-phenyl-4H-1,2,4-triazol-3-yl)phenol] | GSK3-β; also recorded: GSK3-α; also recorded: CDK2-cyclinA | 
38 | COc1ccc(-n2c(S)nnc2-c2ccc(O)cc2)cc1 [4-(5-mercapto-4-(4-methoxyphenyl)-4H-1,2,4-triazol-3-yl)phenol] |  | CDK5 and GSK3-β and GSK3-α
39 | Cn1c(S)nnc1-c1ccc(O)cc1 [4-(5-mercapto-4-methyl-4H-1,2,4-triazol-3-yl)phenol] |  | CDK5 and CDK2-cyclinA and CDK2-cyclinE
40 | Oc1ccc(-c2nnc(S)n2-c2ccccc2)cc1 [4-(5-mercapto-4-phenyl-4H-1,2,4-triazol-3-yl)phenol] |  | CDK5 and GSK3-α and CDK2-cyclinA
41 | CCC(c1ccccc1)c1nnc(SCc2ccc(C(=O)O)cc2)[nH]1 (stereo not drawn) [4-((5-(1-phenylpropyl)-4H-1,2,4-triazol-3-ylthio)methyl)benzoic acid] | AURORA-A | 
42 | Clc1ccc(-c2nnc(SCc3ccncc3)[nH]2)cc1Cl [4-((5-(3,4-dichlorophenyl)-4H-1,2,4-triazol-3-ylthio)methyl)pyridine] | FLT-3; also recorded: GSK3-β | 

Reference: US20050288347A1, “Certain triazole-based compounds, compositions, and uses thereof” (priority 2004, published 2005)
